Assay results from patent US20090137572A1, “2-substituted-4-heteroaryl-pyrimidines useful for the treatment of proliferative disorders” (priority 2004, published 2009).

How the values were obtained:
GSK3b = GSK3b (Homo sapiens, UniProt P49841); assay: Kinase assay (radioactive phosphate incorporation), GSK-3b; type: biochemical; conditions: read-out: Kinase Inhibition pIC50 GSK-3b (converted)
Method: (§1) Kinase assays. The compounds of the invention above were investigated for their ability to inhibit the enzymatic activity of various protein kinases (Table 2). This was achieved by measurement of incorporation of radioactive phosphate from ATP into appropriate polypeptide substrates. Recombinant protein kinases and kinase complexes were produced or obtained commercially. Assays were performed using 96-well plates and appropriate assay buffers (typically 25 mM β-glycerophosphate, 20 mM MOPS, 5 mM EGTA, 1 mM DTT, 1 mM […], pH 7.4), into which were added 2-4 μg of active enzyme with appropriate substrates. The reactions were initiated by addition of Mg/ATP mix (15 mM MgCl2+100 μM ATP with 30-50 kBq per well of [γ-^32P]-ATP) and mixtures incubated as required at 30° C. Reactions were stopped on ice, followed by filtration through p81 filterplates or GF/C filterplates (Whatman Polyfiltronics, Kent, UK). After washing 3 times with 75 mM aq orthophosphoric acid, plates were dried, scintillant added and incorporated radioactivity measured in a scintillation counter (TopCount, Packard Instruments, Pangbourne, Berks, UK). Compounds for kinase assay were made up as 10 mM stocks in DMSO and diluted into 10% DMSO in assay buffer.

Aurora A kinase = molecular target: T1, Aurora A kinase (Homo sapiens, UniProt O14965); assay: Aurora-A (human) kinase assay (Kemptide substrate); type: biochemical; conditions: pIC50 is -log(IC50, M); 15 μM ATP; read-out: Kinase Inhibition pIC50 Aurora A kinase (converted)
T1 construct: purchased
T1 sequence (O14965 1-403): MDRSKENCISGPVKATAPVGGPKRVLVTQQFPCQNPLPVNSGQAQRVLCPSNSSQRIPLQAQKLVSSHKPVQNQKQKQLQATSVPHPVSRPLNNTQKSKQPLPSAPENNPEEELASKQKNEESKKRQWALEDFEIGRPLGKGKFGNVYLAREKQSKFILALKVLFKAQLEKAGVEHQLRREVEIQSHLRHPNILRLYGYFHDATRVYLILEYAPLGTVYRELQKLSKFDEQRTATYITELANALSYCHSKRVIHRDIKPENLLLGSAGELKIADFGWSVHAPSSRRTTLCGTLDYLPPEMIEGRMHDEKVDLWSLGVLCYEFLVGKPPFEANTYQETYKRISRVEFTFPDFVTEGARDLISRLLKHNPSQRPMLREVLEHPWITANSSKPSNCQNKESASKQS
Method in brief: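 Radiometric filter-binding assay: commercial aurora-A kinase (5-10 ng) with 200 μM Kemptide in MOPS/EDTA pH 7.0, started with 10 mM Mg acetate and 15 μM ATP plus [γ-33P]-ATP. Incubated 40 min at room temperature, stopped with phosphoric acid, incorporated 33P counted by scintillation.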

[1] = molecular target: T2, Flt3 (FMS-like tyrosine kinase-3) (Homo sapiens, UniProt P36888); assay: Kinase assay (radioactive phosphate incorporation), Flt3; type: biochemical; conditions: pIC50 is -log(IC50, M), read-out: Kinase Inhibition pIC50 Flt3 (converted)
T2 sequence (P36888 27-993): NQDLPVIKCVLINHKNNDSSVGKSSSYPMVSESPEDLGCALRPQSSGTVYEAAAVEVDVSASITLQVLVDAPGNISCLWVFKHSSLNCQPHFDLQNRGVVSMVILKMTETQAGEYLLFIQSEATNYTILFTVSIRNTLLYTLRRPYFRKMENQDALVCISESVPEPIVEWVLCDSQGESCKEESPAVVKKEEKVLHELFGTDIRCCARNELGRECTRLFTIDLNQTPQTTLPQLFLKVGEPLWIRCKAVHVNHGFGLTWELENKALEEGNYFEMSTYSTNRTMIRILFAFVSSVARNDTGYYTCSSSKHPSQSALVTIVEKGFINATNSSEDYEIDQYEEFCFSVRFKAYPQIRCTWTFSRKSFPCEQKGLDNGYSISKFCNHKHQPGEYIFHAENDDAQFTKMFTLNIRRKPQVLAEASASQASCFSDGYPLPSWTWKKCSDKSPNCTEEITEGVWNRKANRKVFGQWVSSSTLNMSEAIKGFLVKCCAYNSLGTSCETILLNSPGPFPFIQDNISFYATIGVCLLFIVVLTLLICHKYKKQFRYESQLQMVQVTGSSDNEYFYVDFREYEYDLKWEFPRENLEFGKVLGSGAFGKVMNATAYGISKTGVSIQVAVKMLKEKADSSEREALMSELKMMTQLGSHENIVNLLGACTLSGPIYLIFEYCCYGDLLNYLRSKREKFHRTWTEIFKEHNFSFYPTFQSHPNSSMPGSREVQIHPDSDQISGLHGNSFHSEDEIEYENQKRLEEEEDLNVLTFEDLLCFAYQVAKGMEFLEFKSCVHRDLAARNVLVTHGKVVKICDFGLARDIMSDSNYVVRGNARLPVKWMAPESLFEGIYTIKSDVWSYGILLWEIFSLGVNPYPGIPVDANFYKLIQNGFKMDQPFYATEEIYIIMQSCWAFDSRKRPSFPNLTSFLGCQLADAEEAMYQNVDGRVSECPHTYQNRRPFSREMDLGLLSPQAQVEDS
Method in brief: (§2)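 Recombinant active enzyme (2-4 μg) with suitable polypeptide substrate in 25 mM β-glycerophosphate, 20 mM MOPS, 5 mM EGTA, 1 mM DTT, 1 mM […], pH 7.4. Started with 15 mM MgCl2/100 μM ATP plus [γ-32P]-ATP, incubated at 30° C; 32P incorporation captured on filter plates and counted by scintillation.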

CDK4-cyclin D1 = CDK4-cyclin D1 (Homo sapiens, UniProt P11802); assay: Kinase assay (radioactive phosphate incorporation), CDK4-cyclin D1; type: biochemical; conditions: read-out: Kinase Inhibition pIC50 CDK4-cyclin D1 (converted)
Method: as §1

CDK7/cyclin H = CDK7/cyclin H (Homo sapiens, UniProt P50613); assay: CDK 7 assay (CTD peptide substrate); type: biochemical; conditions: read-out: Kinase Inhibition pIC50 CDK7-cyclin H (converted)
Method in brief: (§3)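 Recombinant human kinase/cyclin complex (0.5-2 μg) with biotinylated CTD heptapeptide-repeat substrate and test compound, 45 min at 30° C in MOPS pH 7.2 buffer with 15 mM MgCl2 and 100 μM ATP traced with [γ-32P]ATP. Avidin added, P81 filter capture, phosphoric acid washes, scintillation counting of 32P incorporation.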

CDK9/cyclin T1 = CDK9/cyclin T1 (Homo sapiens, UniProt P50750); assay: CDK 9 assay (CTD peptide substrate); type: biochemical; conditions: read-out: Kinase Inhibition pIC50 CDK9-cyclin T1 (converted)
Method in brief: as §3

CDK2-cycline E = CDK2-cycline E (Homo sapiens, UniProt P24941); assay: Kinase assay (radioactive phosphate incorporation), CDK2-cyclin E; type: biochemical; conditions: read-out: Kinase Inhibition pIC50 CDK2-cycline E (converted)
Method in brief: as §2

CDK1-cyclin B = CDK1-cyclin B (Homo sapiens, UniProt P06493); assay: Kinase assay (radioactive phosphate incorporation), CDK1-cyclin B; type: biochemical; conditions: read-out: Kinase Inhibition pIC50 CDK1-cyclin B (converted)
Method: as §1

Chain of CDK9/cyclin T1 (P50750 whole entry): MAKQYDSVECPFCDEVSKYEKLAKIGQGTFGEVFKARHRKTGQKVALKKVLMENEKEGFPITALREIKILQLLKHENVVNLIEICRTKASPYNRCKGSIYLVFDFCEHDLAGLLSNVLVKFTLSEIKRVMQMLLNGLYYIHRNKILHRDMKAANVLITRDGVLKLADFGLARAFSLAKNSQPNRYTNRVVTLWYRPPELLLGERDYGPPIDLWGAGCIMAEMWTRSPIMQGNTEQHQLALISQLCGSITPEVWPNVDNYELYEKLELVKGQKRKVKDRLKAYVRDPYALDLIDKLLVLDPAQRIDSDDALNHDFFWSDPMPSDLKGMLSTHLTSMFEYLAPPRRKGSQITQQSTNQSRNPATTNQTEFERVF
Chain of CDK9/cyclin T1 (O60563 whole entry partner): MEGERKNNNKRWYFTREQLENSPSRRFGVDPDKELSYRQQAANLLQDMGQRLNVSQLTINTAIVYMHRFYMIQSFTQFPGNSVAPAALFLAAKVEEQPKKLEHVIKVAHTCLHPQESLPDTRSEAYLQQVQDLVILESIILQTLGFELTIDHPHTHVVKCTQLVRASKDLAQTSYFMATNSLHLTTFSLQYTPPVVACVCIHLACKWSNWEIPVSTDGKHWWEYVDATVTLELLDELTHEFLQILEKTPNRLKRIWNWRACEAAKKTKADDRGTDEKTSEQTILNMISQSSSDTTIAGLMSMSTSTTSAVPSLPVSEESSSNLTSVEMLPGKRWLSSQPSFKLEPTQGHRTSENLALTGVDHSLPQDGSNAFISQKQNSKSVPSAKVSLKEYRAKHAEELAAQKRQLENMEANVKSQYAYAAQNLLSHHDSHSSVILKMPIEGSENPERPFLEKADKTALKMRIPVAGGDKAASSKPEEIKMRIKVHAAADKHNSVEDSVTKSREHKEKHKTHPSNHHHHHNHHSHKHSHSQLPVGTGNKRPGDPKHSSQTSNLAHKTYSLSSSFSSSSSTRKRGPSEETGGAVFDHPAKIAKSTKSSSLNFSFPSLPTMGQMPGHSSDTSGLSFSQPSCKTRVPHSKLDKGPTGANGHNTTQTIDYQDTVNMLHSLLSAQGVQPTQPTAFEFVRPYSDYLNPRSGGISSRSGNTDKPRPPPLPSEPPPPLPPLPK
Chain of CDK4-cyclin D1 (P11802 whole entry): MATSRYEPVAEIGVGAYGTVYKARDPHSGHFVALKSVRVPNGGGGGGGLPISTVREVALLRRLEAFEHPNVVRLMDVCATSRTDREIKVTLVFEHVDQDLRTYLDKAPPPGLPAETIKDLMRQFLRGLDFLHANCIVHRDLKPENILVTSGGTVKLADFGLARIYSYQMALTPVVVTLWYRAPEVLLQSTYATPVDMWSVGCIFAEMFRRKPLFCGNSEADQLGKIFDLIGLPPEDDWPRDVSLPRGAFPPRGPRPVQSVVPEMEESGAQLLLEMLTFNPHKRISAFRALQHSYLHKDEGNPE
Chain of CDK4-cyclin D1 (P24385 whole entry partner): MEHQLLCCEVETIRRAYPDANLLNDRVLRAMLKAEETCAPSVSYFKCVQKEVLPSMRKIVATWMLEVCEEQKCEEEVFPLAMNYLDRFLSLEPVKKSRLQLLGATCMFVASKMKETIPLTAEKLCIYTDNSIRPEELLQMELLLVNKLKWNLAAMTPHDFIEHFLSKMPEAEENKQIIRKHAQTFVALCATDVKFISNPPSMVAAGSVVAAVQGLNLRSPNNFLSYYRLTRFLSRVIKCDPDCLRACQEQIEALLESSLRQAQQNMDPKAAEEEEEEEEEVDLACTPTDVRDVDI
Chain of CDK1-cyclin B (P06493 whole entry): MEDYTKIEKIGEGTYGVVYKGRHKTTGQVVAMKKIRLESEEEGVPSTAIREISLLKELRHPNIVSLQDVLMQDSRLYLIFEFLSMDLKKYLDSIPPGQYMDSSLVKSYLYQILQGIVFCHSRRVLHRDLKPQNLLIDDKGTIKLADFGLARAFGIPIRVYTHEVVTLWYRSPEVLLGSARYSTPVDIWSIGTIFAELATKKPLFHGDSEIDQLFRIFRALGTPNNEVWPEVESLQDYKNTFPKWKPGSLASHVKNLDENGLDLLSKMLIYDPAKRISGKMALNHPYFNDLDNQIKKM
Chain of CDK1-cyclin B (P14635 whole entry partner): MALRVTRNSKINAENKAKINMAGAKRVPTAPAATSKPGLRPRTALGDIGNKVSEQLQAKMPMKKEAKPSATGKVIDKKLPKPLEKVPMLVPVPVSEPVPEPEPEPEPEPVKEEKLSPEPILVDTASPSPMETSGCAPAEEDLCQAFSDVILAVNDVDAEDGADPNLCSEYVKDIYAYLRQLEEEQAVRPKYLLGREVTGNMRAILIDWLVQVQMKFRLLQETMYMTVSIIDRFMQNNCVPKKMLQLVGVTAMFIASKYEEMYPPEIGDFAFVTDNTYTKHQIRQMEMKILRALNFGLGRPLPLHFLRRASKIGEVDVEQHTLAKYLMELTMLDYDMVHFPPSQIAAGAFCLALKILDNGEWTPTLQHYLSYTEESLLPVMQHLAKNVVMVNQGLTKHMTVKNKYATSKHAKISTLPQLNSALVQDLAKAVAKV
Chain of CDK7/cyclin H (P50613 whole entry): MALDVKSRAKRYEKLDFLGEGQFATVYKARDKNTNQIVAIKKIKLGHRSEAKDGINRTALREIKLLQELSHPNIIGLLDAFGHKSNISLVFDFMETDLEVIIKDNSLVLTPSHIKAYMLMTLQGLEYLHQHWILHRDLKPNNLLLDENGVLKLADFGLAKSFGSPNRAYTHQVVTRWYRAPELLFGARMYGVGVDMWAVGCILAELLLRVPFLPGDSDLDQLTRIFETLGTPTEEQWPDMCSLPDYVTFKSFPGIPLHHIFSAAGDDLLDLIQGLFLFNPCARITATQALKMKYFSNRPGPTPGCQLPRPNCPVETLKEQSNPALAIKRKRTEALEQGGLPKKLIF
Chain of CDK7/cyclin H (P51946 whole entry partner): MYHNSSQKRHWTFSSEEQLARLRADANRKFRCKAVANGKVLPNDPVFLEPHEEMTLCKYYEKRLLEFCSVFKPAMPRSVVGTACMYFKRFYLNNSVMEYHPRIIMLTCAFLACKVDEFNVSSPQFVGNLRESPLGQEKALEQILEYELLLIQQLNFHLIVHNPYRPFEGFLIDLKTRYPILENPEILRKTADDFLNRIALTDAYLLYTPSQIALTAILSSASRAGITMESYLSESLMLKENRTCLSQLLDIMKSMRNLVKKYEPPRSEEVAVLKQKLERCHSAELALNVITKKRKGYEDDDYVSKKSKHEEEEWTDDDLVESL
Chain of GSK3b (P49841 whole entry, species assumed): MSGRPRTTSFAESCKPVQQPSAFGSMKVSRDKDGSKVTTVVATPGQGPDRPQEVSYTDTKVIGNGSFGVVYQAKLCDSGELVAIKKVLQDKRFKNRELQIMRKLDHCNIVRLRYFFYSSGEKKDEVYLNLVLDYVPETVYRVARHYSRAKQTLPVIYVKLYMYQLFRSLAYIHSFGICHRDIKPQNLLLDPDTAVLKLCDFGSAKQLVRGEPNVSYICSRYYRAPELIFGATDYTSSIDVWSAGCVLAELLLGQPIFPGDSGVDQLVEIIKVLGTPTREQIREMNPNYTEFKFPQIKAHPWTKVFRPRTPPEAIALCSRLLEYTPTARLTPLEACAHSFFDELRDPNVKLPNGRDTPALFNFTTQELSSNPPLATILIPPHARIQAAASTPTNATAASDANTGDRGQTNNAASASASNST

Structure (SMILES)	IC50 (GSK3b) [nM]	IC50 (Aurora A kinase) [nM]	IC50 [1] [nM]	IC50 (CDK4-cyclin D1) [nM]	IC50 (CDK7/cyclin H) [nM]	IC50 (CDK9/cyclin T1) [nM]	IC50 (CDK2-cycline E) [nM]	IC50 (CDK1-cyclin B) [nM]	melting point [°C]
CNc1nc(C)c(-c2ccnc(Nc3cccc(N4CCN(C(C)=O)CC4)c3)n2)s1 [Compound 3, 1-(4-{3-[4-(4-Methyl-2-methylamino-thiazol-5-yl)-pyrimidin-2-ylamino]-phenyl}-piperazin-1-yl)-ethanone]	5010	20	20	3160	2000	–	–	–	–
CNc1nc(C)c(-c2ccnc(Nc3ccc(S(N)(=O)=O)cc3)n2)s1 [Compound 34, 4-[4-(4-Methyl-2-methylamino-thiazol-5-yl)-pyrimidin-2-ylamino]-benzenesulfonamide]	1260	31.6	316	–	1000	–	–	–	–
CC(=O)N1CCN(c2cccc(Nc3nccc(-c4sc(C)nc4C)n3)c2)CC1 [Compound 46, 1-(4-{3-[4-(2,4-Dimethyl-thiazol-5-yl)-pyrimidin-2-ylamino]-phenyl}-piperazin-1-yl)-ethanone]	3160	–	200	–	5010	1000	–	12600	–
CNc1nc(C)c(-c2ccnc(Nc3cccc(S(=O)(=O)NCCOC)c3)n2)s1 [Compound 54, N-(2-Methoxy-ethyl)-3-[4-(4-methyl-2-methylamino-thiazol-5-yl)-pyrimidin-2-ylamino]-benzenesulfonamide]	631	25.1	251	251	794	39.8	100	–	205 to 206
CCNc1nc(C)c(-c2ccnc(Nc3cccc(S(=O)(=O)NC(C)C)c3)n2)s1 [Compound 70, 3-[4-(2-Ethylamino-4-methyl-thiazol-5-yl)-pyrimidin-2-ylamino]-N-isopropyl-benzenesulfonamide]	5010	1000	–	158	–	100	–	–	–
Cc1nc(N)sc1-c1ccnc(Nc2cccc(S(=O)(=O)N3CCOCC3)c2)n1 [Compound 81, [4-(2-Amino-4-methyl-thiazol-5-yl)-pyrimidin-2-yl]-[3-(morpholine-4-sulfonyl)-phenyl]-amine]	25.1	3160	–	–	6310	–	3160	–	215 to 216
COCCNc1nc(C)c(-c2ccnc(Nc3cccc(S(N)(=O)=O)c3)n2)s1 [Compound 83, 3-{4-[2-(2-Methoxy-ethylamino)-4-methyl-thiazol-5-yl]-pyrimidin-2-ylamino}-benzenesulfonamide]	794	–	39.8	–	50.1	15.8	25.1	–	–
Cc1nc(C)c(-c2ccnc(Nc3cccc(CNC(=O)c4ccccn4)c3)n2)s1 [Compound 91, Pyridine-2-carboxylic acid 3-[4-(2,4-dimethyl-thiazol-5-yl)-pyrimidin-2-ylamino]-benzylamide]	3980	794	251	–	–	–	398	–	–

Now from value to molecule:

IC50 (GSK3b) [nM]	IC50 (Aurora A kinase) [nM]	IC50 [1] [nM]	IC50 (CDK4-cyclin D1) [nM]	IC50 (CDK7/cyclin H) [nM]	IC50 (CDK9/cyclin T1) [nM]	IC50 (CDK2-cycline E) [nM]	IC50 (CDK1-cyclin B) [nM]	melting point [°C]	Structure (SMILES)
3980	12.6	–	–	1260	39.8	–	–	–	CCNc1nc(C)c(-c2ccnc(Nc3ccc(C)c(S(=O)(=O)N4CCOCC4)c3)n2)s1 [Compound 36, [4-(2-Ethylamino-4-methyl-thiazol-5-yl)-pyrimidin-2-yl]-[4-methyl-3-(morpholine-4-sulfonyl)-phenyl]-amine]
1000	25.1	79.4	–	6310	39.8	316	–	–	CNc1nc(C)c(-c2ccnc(Nc3ccc(C)c(Br)c3)n2)s1 [Compound 42, (3-Bromo-4-methyl-phenyl)-[4-(4-methyl-2-methylamino-thiazol-5-yl)-pyrimidin-2-yl]-amine]
631	100	–	631	–	–	631	1580	–	Cc1nc(NC(C)(C)C)sc1-c1ccnc(Nc2cccc([N+](=O)[O-])c2)n1 [Compound 51, [4-(2-tert-Butylamino-4-methyl-thiazol-5-yl)-pyrimidin-2-yl]-(3-nitro-phenyl)-amine]
–	63.1	–	10000	15800	10000	–	79400	–	CC(=O)N1CCN(c2ccc(Nc3nccc(-c4sc(N)nc4C)n3)cc2)CC1 [Compound 57, 1-(4-{4-[4-(2-Amino-4-methyl-thiazol-5-yl)-pyrimidin-2-ylamino]-phenyl}-piperazin-1-yl)-ethanone]
2510	398	–	–	–	251	–	–	–	CCNc1nc(C)c(-c2ccnc(Nc3cccc(S(=O)(=O)NCc4ccccc4)c3)n2)s1 [Compound 80, N-Benzyl-3-[4-(2-ethylamino-4-methyl-thiazol-5-yl)-pyrimidin-2-ylamino]-benzenesulfonamide]
3160	3160	–	–	3980	398	3980	–	81 to 83	Cc1nc(C)c(-c2ccnc(Nc3ccc(C)c(S(=O)(=O)N4CCOCC4)c3)n2)s1 [Compound 82, [4-(2,4-Dimethyl-thiazol-5-yl)-pyrimidin-2-yl]-[4-methyl-3-(morpholine-4-sulfonyl)-phenyl]-amine]
2510	25.1	–	–	1580	158	631	–	–	CCNc1nc(C)c(-c2ccnc(Nc3cccc(S(=O)(=O)NC(C)(C)CO)c3)n2)s1 [Compound 84, 3-[4-(2-Ethylamino-4-methyl-thiazol-5-yl)-pyrimidin-2-ylamino]-N-(2-hydroxy-1,1-dimethyl-ethyl)-benzenesulfonamide]
